Experimental data from paper PMC3842914, “Meleagrin, a New FabI Inhibitor from Penicillium chryosogenum with at Least One Additional Mode of Action” (PLoS ONE, 2013).
In brackets after ≈: the same amount, converted by molar mass. Where two headings read alike, the source gives them in different places.

What was measured:
S. aureus FabI = target: T1, S. aureus FabI (Staphylococcus aureus, UniProt Q6GI75); assay: Fluorescence quenching assay (direct binding); settings: increasing amounts of compound; FabI fluorescence at 307 nm
T1 construct: made in house
T1 sequence (Q6GI75 1-256): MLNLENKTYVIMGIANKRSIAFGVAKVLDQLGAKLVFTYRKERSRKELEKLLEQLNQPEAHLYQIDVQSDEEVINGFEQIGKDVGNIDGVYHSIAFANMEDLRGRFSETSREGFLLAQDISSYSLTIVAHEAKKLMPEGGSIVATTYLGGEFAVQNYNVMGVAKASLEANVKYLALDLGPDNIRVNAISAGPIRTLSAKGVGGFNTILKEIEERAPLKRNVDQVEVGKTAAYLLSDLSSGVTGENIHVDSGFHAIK
Method: Fluorescence spectra were measured using a SHIMADZU fluorescence spectrophotometer (model RF-5310PC). […] Protein quenching was monitored at 25°C by using 5-nm excitation and 5-nm emission wavelength. The excitation wavelength was 280 nm, and the emission spectra were measured between 290 and 430 nm.

[1] = MIC against other gram-positive bacteria; type: cell-based; settings: Staphylococcus aureus
Method: (§1) Whole-cell antimicrobial activity was determined by broth microdilution as described previously. The test strains except for S. pneumoniae were grown to mid-log phase in Mueller–Hinton broth and diluted 1,000-fold in the same medium. Cells (10^5/mL) were inoculated into Mueller–Hinton broth and dispensed at 0.2 mL/well into a 96-well microtiter plate. S. pneumoniae was grown in tryptic soy broth supplemented with 5% sheep blood. MICs were determined in triplicate by serial 2-fold dilutions of test compounds. […] Bacterial growth was determined by measuring the absorption at 650 nm by using a microtiter ELISA reader.

S. aureus KCTC 1916 [2] = assay: MIC, S. aureus KCTC 1916; type: cell-based; settings: Staphylococcus aureus, KCTC1916
Method: as §1

S. aureus KCTC 1916 [3] = type: cell-based, Staphylococcus aureus; settings: exposure 4× MIC
Method: (§2) The frequency of spontaneous resistance was determined for S. aureus RN4220, S. aureus KCTC 1916, and E. coli KCTC 1942. […] The organisms were grown to log-phase by dilution of an overnight culture in fresh media and re-incubation at 35°C until the cultures reached a cell density of approximately 10^9 CFU/mL. […] Inocula were determined by applying 100 μl of 10-fold dilutions on solid media without drug. Colony-forming units were counted after 48 h incubation at 35°C. The ratio of the number of colonies on drug-containing plates to that on control plates was calculated as the in vitro frequency of isolation of CFU.

S. aureus RN4220 [4] = type: cell-based, Staphylococcus aureus; settings: exposure 4× MIC
Method: as §2

E. coli KCTC 1924 = type: cell-based; settings: exposure 4× MIC
Method: as §2

E. coli EW1b = assay: Overexpression assay, MIC for pump-negative (tolC) E. coli EW1b; type: cell-based; settings: Escherichia coli
Method: as §1
(§3) An overexpression assay using S. aureus RN4220, S. aureus RN4220 (pE194), and S. aureus RN4220 (pE194-fabI) was conducted to perform target validation of FabI inhibitors as described previously. Additionally, both fabI- and fabK-overexpressing E. coli were constructed to test a multitarget effect of the compounds. The wild-type fabI gene from the genomic DNA of E. coli W3110 was amplified by PCR by using the primers 5′-[…]-3′ and 5′-[…]-3′. The wild-type fabK gene from the genomic DNA of S. pneumoniae KCTC 5412 was amplified by PCR by using the primers 5′-[…]-3′ and 5′-[…] […]-3′. The resulting products were cloned into the pBAD-TOPO TA expression vector (Invitrogen, Carlsbad, CA, USA) to yield the pBAD-fabI and pBAD-fabK recombinant plasmids, which placed the expression of the genes fabI and fabK, respectively, under the control of the arabinose promoter. Recombinant pBAD-fabI and pBAD-fabK were then introduced into the pump-negative (tolC) E. coli EW1b via electroporation to generate E. coli EW1b (pBAD-fabI) and E. coli EW1b (pBAD-fabK), respectively.

E. coli EW1b(pBAD-fabI) = assay: Overexpression assay, MIC for fabI-overexpressing E. coli EW1b (pBAD-fabI); type: cell-based; settings: for MIC for fabI-overexpressing E. coli relative to wild-type and vector-containing E. coli: E. coli EW1b (pBAD-fabI) vs E. coli EW1b and E. coli EW1b (pBAD), in the presence of arabinose; for MIC: Escherichia coli
Method: as §1, §3

E. coli EW1b(pBAD-fabK) = assay: Overexpression assay, MIC for fabK-overexpressing E. coli EW1b (pBAD-fabK); type: cell-based; settings: Escherichia coli
Method: as §1, §3

S. aureus RN4220 [5] = assay: Inhibition of macromolecular biosynthesis (radiolabeled precursor incorporation) in S. aureus; type: cell-based, Staphylococcus aureus; settings: drugs at 2 times the MIC
Method: (§4) To monitor the effects of compound 1 on lipid, DNA, RNA, protein, and cell wall biosynthesis, its effects on the incorporation of [1-^14C] acetate (50 mCi/mmol), [2-^14C] thymidine (59.8 mCi/mmol), [U-^14C] uridine (539 mCi/mmol), L-[U-^14C] leucine (306 mCi/mmol) or L-[U-^14C] isoleucine (329 mCi/mmol), and N-acetyl-D-[1-^14C] glucosamine (58.1 mCi/mmol) into S. aureus and S. pneumoniae were measured as described previously. S. aureus was exponentially grown to an A650 of 0.2 in Mueller–Hinton broth. S. pneumoniae was grown in tryptic soy broth supplemented with 5% sheep blood. […] An equal volume of DMSO solvent was added to the untreated control. After incubation with the radiolabeled precursors at 37°C for 1 h, followed by centrifugation, the cell pellets were washed twice with PBS buffer. After acetate incorporation, the total cellular lipids were extracted with chloroform-methanol-water. The incorporated radioactivity in the chloroform phase was measured by scintillation counting. For the other precursors, incorporation was terminated by adding 10% (w/v) TCA and cooling on ice for 20 min. The precipitated material was collected on Whatman GF/C glass microfiber filters, washed with TCA and ethanol, dried, and counted using a scintillation counter. The total counts incorporated at 1 h of incubation without inhibitors ranged from >7,000 for [U-^14C] uridine to <13,000 for [1-^14C] acetate. […] In all experiments, known antibacterial agents were included as positive controls.

S. pneumoniae KCTC 3932 = assay: Inhibition of macromolecular biosynthesis (radiolabeled precursor incorporation) in S. pneumoniae; type: cell-based, Streptococcus pneumoniae; settings: drugs at 2 times the MIC
Method: as §4

[6] = read-out: MIC E. coli EW1b (+) Ara
[7] = read-out: MIC E. coli EW1b (−) Ara
[8] = read-out: MIC E. coli EW1b(pBAD-fabI) (+) Ara
[9] = read-out: MIC E. coli EW1b(pBAD-fabI) (−) Ara
[10] = read-out: MIC E. coli EW1b(pBAD-fabK) (+) Ara
[11] = read-out: MIC E. coli EW1b(pBAD-fabK) (−) Ara

Row | SMILES | Fluorescence quenching of S. aureus FabI (S. aureus FabI) | Frequency of resistance (S. aureus KCTC 1916 [3]) | Frequency of resistance (S. aureus RN4220 [4]) | Frequency of resistance (E. coli KCTC 1924) | MIC (E. coli EW1b; [6]) | MIC (E. coli EW1b; [7]) | MIC for fabI-overexpressing E. coli relative to wild-type and vector-containing E. coli (E. coli EW1b(pBAD-fabI)) | MIC (E. coli EW1b(pBAD-fabI); [8]) | MIC (E. coli EW1b(pBAD-fabI); [9]) | MIC (E. coli EW1b(pBAD-fabK); [10]) | MIC (E. coli EW1b(pBAD-fabK); [11]) | MIC (S. aureus KCTC 1916 [2]) | Inhibition of precursor incorporation, [1-14C] Acetate (S. aureus RN4220 [5]) | further results
1 | C=CC(C)(C)C12C=C(OC)C(=O)N3/C(=C/c4cnc[nH]4)C(=O)N(C)C31N(OC)c1ccccc12 (stereo not shown) [Compound 5, O,N^14-dimethylmeleagrin] | fluorescence intensity decreased gradually | <1.03×10^−10 | <1.62×10^−10 | <6.7×10^−9 | 16 µg/mL (≈ 34.7 µM) | 16 µg/mL (≈ 34.7 µM) | 4 fold | 64 µg/mL (≈ 139 µM) | 16 µg/mL (≈ 34.7 µM) | 16 µg/mL (≈ 34.7 µM) | 16 µg/mL (≈ 34.7 µM) |  |  | MIC ([1]; other gram-positive bacteria incl. MRSA and QRSA strains, read-out: MIC): 8 to 16 µg/mL (≈ 17.3 to 34.7 µM); MIC (S. aureus KCTC 1916 [2]; S. aureus KCTC 1916, read-out: MIC): 16 µg/mL (≈ 34.7 µM)
2 | Oc1cc(Cl)ccc1Oc1ccc(Cl)cc1Cl [Triclosan, reference compound] | resulted in fluorescence quenching |  |  |  | 0.002 µg/mL (≈ 0.00691 µM) | 0.002 µg/mL (≈ 0.00691 µM) |  | > 0.08 µg/mL | 0.002 µg/mL (≈ 0.00691 µM) | > 0.08 µg/mL | 0.002 µg/mL (≈ 0.00691 µM) | 0.01 µg/mL (≈ 0.0345 µM) | 87% | 
3 | C=CC(C)(C)C12C=C(OC)C(=O)N3/C(=C/c4cnc[nH]4)C(=O)N(C)C31Nc1ccccc12 (stereo not shown) [Compound 6, O,N^14-dimethylglandicolin] |  |  |  |  |  |  |  |  |  |  |  |  |  | MIC [1]: 8 to 16 µg/mL (≈ 18.5 to 37.1 µM)
4 | C=CC(C)(C)C12C=C(O)C(=O)N3/C(=C/c4cnc[nH]4)C(=O)NC31Nc1c(Br)cccc12 (stereo not shown) [Compound 7] | did not exhibit such an effect |  |  |  |  |  |  |  |  |  |  |  |  | 
5 | C=CC(C)(C)C12C=C(O)C(=O)N3/C(=C/c4cnc[nH]4)C(=O)NC31N(OC)c1ccccc12 (stereo not shown) [Compound 1, meleagrin] | same pattern as compound 5 | <1.03×10^−10 | <1.62×10^−10 | <6.7×10^−9 | 32 µg/mL (≈ 73.8 µM) | 32 µg/mL (≈ 73.8 µM) | 4 fold | 128 µg/mL (≈ 295 µM) | 32 µg/mL (≈ 73.8 µM) | 32 µg/mL (≈ 73.8 µM) | 32 µg/mL (≈ 73.8 µM) | 32 µg/mL (≈ 73.8 µM) | 62% | Inhibition of precursor incorporation, L-[U-14C] Isoleucine (S. aureus RN4220 [5]): 6%; Inhibition of precursor incorporation, N-Acetyl-D-[1-14C] Glucosamine (S. aureus RN4220 [5]): 25%; Inhibition of precursor incorporation, [2-14C] Thymidine (S. aureus RN4220 [5]): 13%; Inhibition of precursor incorporation, [U-14C] Uridine (S. aureus RN4220 [5]): 17%; Inhibition of precursor incorporation, L-[U-14C] Isoleucine (S. pneumoniae KCTC 3932): 9%; Inhibition of precursor incorporation, N-Acetyl-D-[1-14C] Glucosamine (S. pneumoniae KCTC 3932): 3%; Inhibition of precursor incorporation, [1-14C] Acetate (S. pneumoniae KCTC 3932): 65%; Inhibition of precursor incorporation, [2-14C] Thymidine (S. pneumoniae KCTC 3932): 15%; Inhibition of precursor incorporation, [U-14C] Uridine (S. pneumoniae KCTC 3932): 2%
